Experimental data as given in patent US20050215646A1, “Methods for treating multiple sclerosis and pharmaceutical compositions therefor” (Renovis, Inc., priority 2004, published 2005).

Legend:
[1] = system: differentiated HL-60 cells; assay: Inhibition of chemoattractant-mediated chemotaxis of differentiated HL-60 cells after pretreatment; format: cell-based; conditions: cells pre-incubated with compound 30 minutes at 37° C, migration 2 hours
Description: Compound 1 was prepared according to the methods of the invention and tested as described below. Briefly, cells were pre-incubated with Compound 1, and then assayed for chemokine-mediated cell migration.
In vitro cell migration assays were performed using differentiated HL-60 cells. HL-60 cells were differentiated by adding 1.4% DMSO to RPMI-1640 media supplemented with 10% FBS and 100 μg/ml penicillin/streptomycin. Cells on the sixth day following differentiation were used for in vitro migration assays.
In vitro migration assays were performed using a Neuroprobe migration apparatus (MBB96, Neuro Probe, Inc., Gaithersburg, Md. 20877) according to the manufacturer's protocol with slight modifications. Briefly, about 370 μl of diluted chemokine or control was added to a 96-well fibronectin-coated, black-walled Packard plate. Chemoattractants included 100 nM formyl-methionyl-leucyl-phenylalanine (fMLP), 30 ng/ml chemokine Stromal Cell-Derived Factor-1 (SDF-1), 300 ng/ml chemokine IL-8. Negative control included migration media alone. The plate was placed into the migration apparatus, an 8 μm framed filter was carefully placed on top of the plate, and the apparatus was screwed down. […]
After staining, the cells were washed with 200 μl phosphate-buffered saline. Cell number in each well was quantitated using ImageXpress (Axon Instruments) or a fluorescent plate reader.

CCR receptors = assay: Migration of CHO-K1 cells expressing CCR receptors; format: cell-based, human; conditions: 2 hours, FIG. 4
Description: (§1) CHO-K1 cells were obtained from American Type Culture Collection (CCL-61) and cultured in Ham's F12 media supplemented with 10% heat inactivated FBS and 100 μg/ml penicillin/streptomycin. cDNA fragments encompassing chemokine receptor coding regions were obtained from cDNAs synthesized from HL-60 cells and/or human peripheral blood mononuclear cells by the polymerase chain reaction. Expression constructs of chemokine receptors were generated by cloning PCR fragments into expression vector pEF6/V5-TOPO (K9610-20, Invitrogen). Transient transfections were carried out with Fugene 6 transfection reagent (1814443, Roche Applied Science) according to the manufacturer's instructions.
(§2) The CHO-chemokine receptor cells were used in migration assays 36 hours following transfection. In vitro migration assays were performed using a Neuroprobe Blindwell migration apparatus (AA12, Neuro Probe, Inc./16008 Industrial Drive, Gaithersburg, Md. 20877) according to the manufacturer's instructions with slight modifications. […]
(§3) Following the migration assays, migrated cells that had adhered to the underside of the filter were quantitated according to the manufacturer's instructions. […] Stained filtered were mounted onto microscope slides and migrated cells in each well were manually counted under 40× magnification.

FMLP receptor = target: T1, FMLP receptor (Homo sapiens, UniProt P21462); assay: Migration of CHO-K1 cells expressing the FMLP receptor; format: cell-based; conditions: 2 hours, FIG. 4
T1 construct: cDNA fragments encompassing chemokine receptor coding regions; expressed in transfected cells; host or cells: CHO-K1 (ATCC CCL-61), transient transfection
T1 sequence (P21462 1-350): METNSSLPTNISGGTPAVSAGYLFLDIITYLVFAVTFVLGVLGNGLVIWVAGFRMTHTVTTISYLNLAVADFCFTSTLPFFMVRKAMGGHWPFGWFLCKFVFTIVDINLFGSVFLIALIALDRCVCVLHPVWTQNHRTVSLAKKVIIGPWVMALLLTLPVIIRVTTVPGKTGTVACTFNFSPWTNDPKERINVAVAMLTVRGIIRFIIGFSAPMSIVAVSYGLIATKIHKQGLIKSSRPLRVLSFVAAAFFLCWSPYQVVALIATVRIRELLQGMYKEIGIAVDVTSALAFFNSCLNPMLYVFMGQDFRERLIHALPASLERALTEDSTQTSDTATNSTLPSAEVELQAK
Description: as §1, §2, §3

CXCR4 = CXCR4 (Homo sapiens, UniProt P61073); assay: Migration of CHO-K1 cells expressing CXCR4; format: cell-based; parameters: cDNA fragments encompassing chemokine receptor coding regions; expressed in transfected cells; host or cells: CHO-K1 (ATCC CCL-61), transient transfection; conditions: CHO-K1 cells expressing CXCR4, 2 hours; FIG. 3
Description: as §1, §2, §3

CXCR6 = target: T2, CXCR6 (Homo sapiens, UniProt O00574); assay: Migration of CHO-K1 cells expressing CXCR6; format: cell-based; conditions: CHO-K1 cells expressing CXCR6, 2 hours; FIG. 3
T2 construct: cDNA fragments encompassing chemokine receptor coding regions; expressed in transfected cells; host or cells: CHO-K1 (ATCC CCL-61), transient transfection
Description: as §1, §2, §3

CXCR2 = target: T3, CXCR2 (Homo sapiens, UniProt P25025); assay: Migration of CHO-K1 cells expressing CXCR2; format: cell-based; conditions: CHO-K1 cells expressing CXCR2, 2 hours; FIG. 3
T3 construct: cDNA fragments encompassing chemokine receptor coding regions; expressed in transfected cells; host or cells: CHO-K1 (ATCC CCL-61), transient transfection
T3 sequence (P25025 1-360): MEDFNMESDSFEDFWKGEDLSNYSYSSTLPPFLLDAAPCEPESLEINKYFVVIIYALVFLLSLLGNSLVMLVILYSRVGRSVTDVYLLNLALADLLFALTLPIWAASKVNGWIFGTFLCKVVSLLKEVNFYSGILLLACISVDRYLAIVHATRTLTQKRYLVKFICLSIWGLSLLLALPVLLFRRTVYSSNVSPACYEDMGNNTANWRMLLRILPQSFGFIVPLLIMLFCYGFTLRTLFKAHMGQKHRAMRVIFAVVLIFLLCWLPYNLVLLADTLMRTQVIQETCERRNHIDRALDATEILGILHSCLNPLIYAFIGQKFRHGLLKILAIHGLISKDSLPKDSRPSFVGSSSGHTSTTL
Description: as §1, §2, §3

CXCR4, sequence (P61073 whole entry, the tested form may be a part): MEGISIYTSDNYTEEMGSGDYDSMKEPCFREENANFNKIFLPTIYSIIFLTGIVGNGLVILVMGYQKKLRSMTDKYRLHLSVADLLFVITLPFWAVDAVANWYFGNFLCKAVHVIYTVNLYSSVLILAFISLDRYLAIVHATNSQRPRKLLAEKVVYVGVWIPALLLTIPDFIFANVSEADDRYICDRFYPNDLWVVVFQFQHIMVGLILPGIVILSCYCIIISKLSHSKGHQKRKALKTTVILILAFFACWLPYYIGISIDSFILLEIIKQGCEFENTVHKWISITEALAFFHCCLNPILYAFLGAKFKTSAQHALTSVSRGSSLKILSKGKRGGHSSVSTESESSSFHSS
T2 sequence (O00574 whole entry, the tested form may be a part): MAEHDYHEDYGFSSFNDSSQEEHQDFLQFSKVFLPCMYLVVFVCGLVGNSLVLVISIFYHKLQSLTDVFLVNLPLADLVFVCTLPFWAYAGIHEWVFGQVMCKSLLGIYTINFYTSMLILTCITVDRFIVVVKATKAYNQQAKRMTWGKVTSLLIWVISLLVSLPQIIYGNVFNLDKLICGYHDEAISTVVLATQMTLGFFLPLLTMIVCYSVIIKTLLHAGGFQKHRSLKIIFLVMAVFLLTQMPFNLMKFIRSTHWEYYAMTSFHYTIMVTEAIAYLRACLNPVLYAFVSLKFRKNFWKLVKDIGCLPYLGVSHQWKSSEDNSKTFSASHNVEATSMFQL

induction of cell migration (FMLP receptor): did not induce migration
induction of cell migration (CXCR4): induced migration
induction of cell migration (CXCR6): induced migration
induction of cell migration (CXCR2): induced migration
Structure (SMILES): CC(C)(C)c1cc(/C=[N+](\[O-])C(C)(C)C)cc(C(C)(C)C)c1O [Compound 1, α-(4-hydroxy-3,5-di-tert-butylphenyl)-N-tert-butylnitrone]
chemotaxis of the cells toward CXC chemokines such as IL-8 and SDF-1 ([1]; FIG. 1): inhibits
chemotaxis of the cells toward fMLP and CCR chemokines such as Rantes and MIP-1 ([1]; FIG. 2): inhibits
induction of cell migration (CCR receptors): did not induce migration
